Laboratory results reported in patent publication US8889704B2 (Array BioPharma Inc., priority 2011, dated 2014).
Structures can show the parent of a compound that is named as a salt.

Assays:
Format in all cases: biochemical
[1] = biological target: PIM-1 (Homo sapiens, UniProt P11309); assay: Enzyme PIM-1 Assay ([33P]ATP incorporation into PIM2tide, filter plate); settings: averaged IC50; 35 μM ATP, 7.5 μM PIM2tide, 0.25 nM PIM-1, 60 min at 22° C.
Summary of the method: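 Ten-point, 3-fold dilution series (10 μM top, 2% DMSO final) tested for inhibition of 33P transfer from 35 μM ATP to 7.5 μM PIM2tide by 0.25 nM PIM-1. Reaction 60 min, 22 °C, pH 7.4 MOPS/MgCl2 buffer; phosphocellulose capture, scintillation counting, IC50 where fitted POC equals 50.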

[2] = biological target: T1, GST-tagged recombinant full-length human Pim-2 (Homo sapiens, UniProt Q9P1W9); assay: PIM-2 Assay (as Example A); settings: averaged IC50; 4 μM ATP, 1.0 μM PIM2tide, 1.5 nM Pim-2
T1 construct: GST-tagged recombinant full-length human Pim-2; GST
Summary of the method: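 IC50 was derived by 4-parameter logistic fitting of percent-of-control data over a 10-point, 3-fold series (highest 10 μM, 2% DMSO). Reactions held 1.5 nM GST-Pim-2 (full-length, human), 4 μM [γ-33P]ATP and 1.0 μM PIM2tide for 60 min at 22 °C, pH 7.4; 33P-peptide captured on P81 filters.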

[3] = biological target: recombinant rat PIM-3 (Rattus norvegicus, UniProt O70444); assay: PIM-3 Assay (as Example A); settings: averaged IC50; 30 μM ATP, 3.75 μM PIM2tide, 0.5 nM PIM-3
Summary of the method: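 33P incorporation from 30 μM [γ-33P]ATP into 3.75 μM PIM2tide by 0.5 nM rat PIM-3, 60 min at 22 °C in pH 7.4 MOPS buffer, read by P81 filter capture and scintillation counting. Compounds tested in 3-fold dilutions up to 10 μM final, 2% DMSO; percent-of-control data fitted by 4-parameter logistic for IC50.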

Sequence of PIM-1 (P11309 whole entry, species assumed): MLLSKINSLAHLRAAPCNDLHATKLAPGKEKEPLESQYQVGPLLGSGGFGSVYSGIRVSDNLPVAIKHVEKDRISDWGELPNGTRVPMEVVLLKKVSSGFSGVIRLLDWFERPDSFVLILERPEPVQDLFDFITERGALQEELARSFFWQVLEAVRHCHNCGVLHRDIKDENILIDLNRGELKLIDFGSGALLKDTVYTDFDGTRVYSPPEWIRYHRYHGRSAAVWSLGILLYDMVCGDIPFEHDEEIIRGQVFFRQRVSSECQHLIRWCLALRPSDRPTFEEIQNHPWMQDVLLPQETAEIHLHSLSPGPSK
T1 sequence (Q9P1W9 whole entry): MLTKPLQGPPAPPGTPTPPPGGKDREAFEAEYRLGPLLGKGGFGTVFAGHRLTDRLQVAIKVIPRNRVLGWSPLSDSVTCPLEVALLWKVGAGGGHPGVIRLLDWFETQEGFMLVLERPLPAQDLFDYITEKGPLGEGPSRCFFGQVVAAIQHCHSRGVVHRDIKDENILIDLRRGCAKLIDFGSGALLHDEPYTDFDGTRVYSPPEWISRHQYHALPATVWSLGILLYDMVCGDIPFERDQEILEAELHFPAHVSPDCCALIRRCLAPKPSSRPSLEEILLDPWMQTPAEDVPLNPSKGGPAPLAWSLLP

Row | SMILES | IC50 [1] | IC50 [2] | IC50 [3]
1 | CC(C)(CO)c1cc(F)cc2ccc(-c3nnc4ccc([C@@H](N5CC[C@H](N)C5)C(F)(F)F)cn34)nc12 [Example 121, 2-(2-(6-((R)-1-((S)-3-aminopyrrolidin-1-yl)-2,2,2-trifluoroethyl)-[1,2,4]triazolo[4,3-a]pyridin-3-yl)-6-fluoroquinolin-8-yl)-2-methylpropan-1-ol dihydrochloride] | 0.13 nM | 8.7 nM | 0.2 nM
2 | CC(=O)OCCOc1cc2nc(-c3nnc4ccc([C@@H](N5CC[C@H](N)C5)C(F)(F)F)cn34)ccc2cc1F [Example 122, 2-(2-(6-((R)-1-((S)-3-aminopyrrolidin-1-yl)-2,2,2-trifluoroethyl)-[1,2,4]triazolo[4,3-a]pyridin-3-yl)-6-fluoroquinolin-7-yloxy)ethyl acetate hydrochloride] | 0.2 nM | > 100 nM | 0.7 nM
3 | N[C@H]1CCN([C@H](c2ccc3nnc(-c4ccc5cc(F)c(OCCO)cc5n4)n3c2)C(F)(F)F)C1 [Example 123, 2-(2-(6-((R)-1-((S)-3-aminopyrrolidin-1-yl)-2,2,2-trifluoroethyl)-[1,2,4]triazolo[4,3-a]pyridin-3-yl)-6-fluoroquinolin-7-yloxy)ethanol hydrochloride] | 0.2 nM | 73 nM | 0.4 nM
4 | COc1ccc2ccc(-c3nnc4ccc([C@@H](N5CC[C@H](N)C5)C(F)(F)F)cn34)nc2c1C [Example 124, (S)-1-((R)-2,2,2-trifluoro-1-(3-(7-methoxy-8-methylquinolin-2-yl)-[1,2,4]triazolo[4,3-a]pyridin-6-yl)ethyl)pyrrolidin-3-amine hydrochloride] | 0.21 nM | > 100 nM | 0.7 nM
5 | N[C@H]1CCN([C@H](c2ccc3nnc(-c4ccc5cc(F)cc(C6(CO)CC6)c5n4)n3c2)C(F)(F)F)C1 [Example 125, (1-(2-(6-((R)-1-((S)-3-aminopyrrolidin-1-yl)-2,2,2-trifluoroethyl)-[1,2,4]triazolo[4,3-a]pyridin-3-yl)-6-fluoroquinolin-8-yl)cyclopropyl)methanol dihydrochloride] | 0.11 nM | 6.2 nM | 0.4 nM
6 | OCC1(c2cc(F)cc3ccc(-c4nnc5ccc([C@@H](N6CC[C@H](O)C6)C(F)(F)F)cn45)nc23)CC1 [Example 126, (S)-1-((R)-2,2,2-trifluoro-1-(3-(6-fluoro-8-(1-(hydroxymethyl)cyclopropyl)quinolin-2-yl)-[1,2,4]triazolo[4,3-a]pyridin-6-yl)ethyl)pyrrolidin-3-ol hydrochloride] | 0.28 nM | > 100 nM | 1.9 nM
7 | COc1cc(C)cc2ccc(-c3nnc4ccc([C@@H](N5CC[C@H](N)C5)C(F)(F)F)cn34)nc12 [Example 127, (S)-1-((R)-2,2,2-trifluoro-1-(3-(8-methoxy-6-methylquinolin-2-yl)-[1,2,4]triazolo[4,3-a]pyridin-6-yl)ethyl)pyrrolidin-3-amine hydrochloride] | 3.28 nM | > 100 nM | 11 nM
8 | Cc1cc(OC(C)C)c2nc(-c3nnc4ccc([C@@H](N5CC[C@H](N)C5)C(F)(F)F)cn34)ccc2c1 [Example 128, (S)-1-((R)-2,2,2-trifluoro-1-(3-(8-isopropoxy-6-methylquinolin-2-yl)-[1,2,4]triazolo[4,3-a]pyridin-6-yl)ethyl)pyrrolidin-3-amine hydrochloride] | 0.58 nM | > 100 nM | 0.7 nM
9 | CC(C)Oc1cccc2ccc(-c3nnc4ccc([C@@H](N5C[C@@H](N)[C@@H](O)C5)C(F)(F)F)cn34)nc12 [Example 129, (3S,4R)-4-amino-1-((R)-2,2,2-trifluoro-1-(3-(8-isopropoxyquinolin-2-yl)-[1,2,4]triazolo[4,3-a]pyridin-6-yl)ethyl)pyrrolidin-3-ol dihydrochloride] | 1.6 nM | 621 nM | 7.7 nM
10 | CC(C)(C)c1cccc2ccc(-c3nnc4ccc([C@@H](N5C[C@@H](N)[C@@H](O)C5)C(F)(F)F)cn34)nc12 [Example 130, (3S,4R)-4-amino-1-((R)-1-(3-(8-tert-butylquinolin-2-yl)-[1,2,4]triazolo[4,3-a]pyridin-6-yl)-2,2,2-trifluoroethyl)pyrrolidin-3-ol dihydrochloride] | 9.03 nM | 756 nM | 28 nM

More lines, now with the values ahead:

Row | IC50 [1] | IC50 [2] | IC50 [3] | SMILES
11 | 2.18 nM | 787 nM | 17 nM | COc1cc2nc(-c3nnc4ccc([C@@H](N5C[C@@H](N)[C@@H](O)C5)C(F)(F)F)cn34)ccc2cc1F [Example 131, (3S,4R)-4-amino-1-((R)-2,2,2-trifluoro-1-(3-(6-fluoro-7-methoxyquinolin-2-yl)-[1,2,4]triazolo[4,3-a]pyridin-6-yl)ethyl)pyrrolidin-3-ol dihydrochloride]
12 | 4.42 nM | 538 nM | 16 nM | CC(C)Oc1cc(F)cc2ccc(-c3nnc4ccc([C@@H](N5C[C@@H](N)[C@@H](O)C5)C(F)(F)F)cn34)nc12 [Example 132, (3S,4R)-4-amino-1-((R)-2,2,2-trifluoro-1-(3-(6-fluoro-8-isopropoxyquinolin-2-yl)-[1,2,4]triazolo[4,3-a]pyridin-6-yl)ethyl)pyrrolidin-3-ol dihydrochloride]
13 | 0.38 nM | 48 nM | 0.6 nM | N[C@H]1CCN([C@H](c2ccc3nnc(-c4ccc5cc(F)c(OCC6CC6)cc5n4)n3c2)C(F)(F)F)C1 [Example 134, (S)-1-((R)-1-(3-(7-(cyclopropylmethoxy)-6-fluoroquinolin-2-yl)-[1,2,4]triazolo[4,3-a]pyridin-6-yl)-2,2,2-trifluoroethyl)pyrrolidin-3-amine hydrochloride]
14 | 1.41 nM | 82 nM | 3 nM | CC(C)Oc1cc(F)cc2ccc(-c3nnc4ccc([C@H](N5CC[C@H](N)C5)C(F)(F)F)cn34)nc12 [Example 135, (S)-1-((S)-2,2,2-trifluoro-1-(3-(6-fluoro-8-isopropoxyquinolin-2-yl)-[1,2,4]triazolo[4,3-a]pyridin-6-yl)ethyl)pyrrolidin-3-amine hydrochloride]
15 | 0.87 nM | 96 nM | 5 nM | COc1cc2nc(-c3nnc4ccc([C@H](N5CC[C@H](N)C5)C(F)(F)F)cn34)ccc2cc1F [Example 136, (S)-1-((S)-2,2,2-trifluoro-1-(3-(6-fluoro-7-methoxyquinolin-2-yl)-[1,2,4]triazolo[4,3-a]pyridin-6-yl)ethyl)pyrrolidin-3-amine hydrochloride]
16 | 3.5 nM | > 1000 nM | 34 nM | COc1cccc2ccc(-c3nnc4ccc([C@@H](N5C[C@@H](N)[C@@H](O)C5)C(F)(F)F)cn34)nc12 [Example 137, (3S,4R)-4-amino-1-((R)-2,2,2-trifluoro-1-(3-(8-methoxyquinolin-2-yl)-[1,2,4]triazolo[4,3-a]pyridin-6-yl)ethyl)pyrrolidin-3-ol dihydrochloride]
17 | 2.03 nM | > 100 nM | 9.5 nM | COc1cc2nc(-c3nnc4ccc([C@@H](N5CC[C@H](N)C5)C(F)(F)F)cn34)ccc2cc1C [Example 138, (S)-1-((R)-2,2,2-trifluoro-1-(3-(7-methoxy-6-methylquinolin-2-yl)-[1,2,4]triazolo[4,3-a]pyridin-6-yl)ethyl)pyrrolidin-3-amine hydrochloride]
18 | 0.58 nM | > 100 nM | 4.9 nM | COc1ccc2ccc(-c3nnc4ccc([C@@H](N5CC[C@H](N)C5)C(F)(F)F)cn34)nc2c1 [Example 139, (S)-1-((R)-2,2,2-trifluoro-1-(3-(7-methoxyquinolin-2-yl)-[1,2,4]triazolo[4,3-a]pyridin-6-yl)ethyl)pyrrolidin-3-amine dihydrochloride]
19 | 0.12 nM | 54 nM | 0.5 nM | COC[C@@H](C)Oc1cccc2ccc(-c3nnc4ccc([C@@H](N5CC[C@H](N)C5)C(F)(F)F)cn34)nc12 [Example 140, (S)-1-((R)-2,2,2-trifluoro-1-(3-(8-((R)-1-methoxypropan-2-yloxy)quinolin-2-yl)-[1,2,4]triazolo[4,3-a]pyridin-6-yl)ethyl)pyrrolidin-3-amine dihydrochloride]
20 | 0.2 nM | 90 nM | 0.9 nM | COC[C@H](C)Oc1cccc2ccc(-c3nnc4ccc([C@@H](N5CC[C@H](N)C5)C(F)(F)F)cn34)nc12 [Example 141, (S)-1-((R)-2,2,2-trifluoro-1-(3-(8-((S)-1-methoxypropan-2-yloxy)quinolin-2-yl)-[1,2,4]triazolo[4,3-a]pyridin-6-yl)ethyl)pyrrolidin-3-amine dihydrochloride]
21 | 0.09 nM | 44 nM | 0.5 nM | CC(C)Oc1ccc2ccc(-c3nnc4ccc([C@@H](N5CC[C@H](N)C5)C(F)(F)F)cn34)nc2c1 [Example 142, (S)-1-((R)-2,2,2-trifluoro-1-(3-(7-isopropoxyquinolin-2-yl)-[1,2,4]triazolo[4,3-a]pyridin-6-yl)ethyl)pyrrolidin-3-amine dihydrochloride]
